Data published in PubChem BioAssay (NCI).
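Growth conditions: 96-well plates. Treatment: test compound, 48 hours, 5 concentrations. Analysis: linear interpolation between bracketing concentrations; unreached endpoints set to highest concentration. GI50: concentration for 50% inhibition of growth. Definition used: TGI = concentration required for complete inhibition of growth.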

Experiments:
Assay in all cases: inhibition of tumour cell growth, NCI panel, 48 h
[1] = tested on: CCRF-CEM leukemia
[2] = tested on: HCC-2998 colon
[3] = tested on: HL-60(TB) leukemia
[4] = tested on: IGROV1 ovarian
[5] = tested on: LOX IMVI melanoma
[6] = tested on: MDA-MB-435
[7] = tested on: MOLT-4 leukemia
[8] = tested on: OVCAR-4 ovarian
[9] = tested on: PC-3 prostate
[10] = tested on: SNB-19 CNS

| SMILES | GI50 [1] [µM] | TGI [1] [µM] | GI50 [2] [µM] | TGI [2] [µM] | GI50 [3] [µM] | TGI [3] [µM] | GI50 [4] [µM] | TGI [4] [µM] | GI50 [5] [µM] | TGI [5] [µM] | GI50 [6] [µM] | TGI [6] [µM] | GI50 [7] [µM] | TGI [7] [µM] | GI50 [8] [µM] | TGI [8] [µM] | GI50 [9] [µM] | TGI [9] [µM] | GI50 [10] [µM] | TGI [10] [µM] |
| --- | --- | --- | --- | --- | --- | --- | --- | --- | --- | --- | --- | --- | --- | --- | --- | --- | --- | --- | --- | --- |
| CCN1[C@@H](C(=O)NC23CCC(C(=O)O)(CC2)CC3)[C@H](c2cccc(Cl)c2F)[C@]2(C(=O)Nc3cc(Cl)ccc32)C12CCCCC2 | 2.98 | 13.2 | 2.39 | 6.89 | 1.96 | 6 | 0.99 | 15.5 | 0.259 | 4.88 | 2.92 | 10.7 | 0.164 | > 22.9 | 3.37 | 15.5 | 2.42 | 9.21 | 3.56 | 15.2 |
| O=C1/C(=C\c2ccco2)Oc2ccccc21 | – | > 100 | – | > 100 | – | > 100 | – | > 100 | – | > 100 | – | > 100 | – | > 100 | – | > 100 | – | > 100 | – | > 100 |
| O=C(CC1(O)C(=O)Nc2ccc(F)cc21)c1ccc(C(=O)NCC2CCC3(CC2)OOC2(CCCCC2)OO3)cc1 (stereo unspecified) | 1.81 | 4.3 | 14.6 | 30 | 1.43 | 3.46 | 1.64 | 6.63 | 0.309 | 1.27 | 3.04 | 10.8 | 3.72 | 28.8 | 7.74 | 32.5 | 3.86 | 19.3 | 14.8 | 36.5 |
| COc1ccc(-c2nc(-c3nc4cc(Cl)c(F)cc4[nH]3)c3ccccn23)cc1 | 3.91 | > 100 | 4.03 | > 100 | 4.97 | > 100 | 4.91 | > 100 | 5.36 | > 100 | 3.8 | > 100 | 4.21 | > 100 | 7.93 | > 100 | 4.58 | > 100 | 8.34 | > 100 |
| CC(=O)/C=C/c1ccc(Nc2c3ccccc3nc3occ(Cl)c23)cc1 | 2.96 | 19.7 | 2.93 | 14.6 | 3.1 | 8.56 | – | – | – | – | 2.03 | 5.95 | 2.69 | 13.3 | 4.35 | 30.2 | 2.63 | 18.8 | 8.71 | 30.2 |
| Cc1ccc(S(=O)(=O)c2nc(-c3ccccc3)oc2S(C)(=O)=O)cc1 | 2.83 | 8.16 | 17.9 | 32.2 | 2 | 6.43 | – | – | 1.59 | 2.99 | 2.11 | 4.58 | 2.27 | 5.87 | 1.92 | 3.72 | 10.4 | 23.1 | 11.2 | 23.2 |
| O=[N+]([O-])c1cc([As](Br)c2ccc(O)c([N+](=O)[O-])c2)ccc1O | – | 0.436 | – | 2.72 | – | 4.63 | – | 3.6 | – | 3.96 | – | 3.51 | – | – | – | 3.28 | – | 3.64 | – | 3.72 |
| CC(C)(C)[Si](C)(C)OC1[C@@H](CNC(N)=O)O[C@@H](n2cnc3c(NC(=O)Nc4ccccc4)ncnc32)[C@H]1O[Si](C)(C)C(C)(C)C (stereo partly specified) | 1.06 | 2.48 | 1.6 | 6.18 | 1.01 | 2.12 | 2.12 | 7.36 | 0.856 | 1.56 | 2.21 | 8.51 | 1.06 | 2.24 | 2.48 | 10.1 | 0.814 | 1.99 | 5.7 | 12.4 |
| COc1ccc(-c2c(C#N)c(N)nc(N3CCOCC3)c2C#N)cc1 | 17.9 | > 100 | 13 | 31.6 | 20.2 | 63.5 | 3.08 | 21 | 14.4 | 36.9 | 28.5 | > 100 | 27.7 | > 100 | 47 | > 100 | 17.6 | 67.3 | 21.8 | > 100 |
| COc1cc(OCc2cccc(-c3ccccc3)c2C)cc(OC)c1CN1CCCCC1C(=O)NCCOCCOCCN (stereo unspecified) | 2.68 | 8.9 | 2.39 | 5.85 | 1.91 | 4.07 | 3.06 | 12.1 | 1.7 | 3.21 | 1.79 | 3.32 | 2.08 | 5.79 | 2.33 | 6.48 | 2.76 | 11.6 | 2.95 | 10.6 |
| COc1cc([C@@H]2c3cc4c(cc3[C@H](OC(C)=O)[C@H]3COC(=O)[C@@H]23)OCO4)cc(OC)c1OC | 0.338 | > 100 | 0.285 | – | 0.235 | – | 0.401 | > 62.5 | 0.551 | > 100 | 0.0787 | 0.469 | 0.438 | > 100 | 2.11 | > 100 | 0.318 | > 100 | 0.393 | > 100 |
| ClCc1cccc(Cn2cnc3c(Cl)nc(Cl)nc32)c1 | 2.72 | > 100 | 1.61 | 3.15 | 0.642 | > 100 | 2.27 | 5.18 | 1.69 | 3.4 | 1.69 | 3.26 | 3.35 | > 100 | 5.51 | 20.1 | 2.38 | 5.02 | 1.96 | 4.17 |
| CCn1cc(/C=C2\Oc3cc(OCC#N)ccc3C2=O)c2cc(OC)ccc21 | 0.113 | > 100 | 1.86 | > 100 | 0.0872 | 0.903 | 0.509 | > 100 | 0.238 | > 100 | 0.0764 | 0.263 | 0.187 | > 100 | 11.2 | > 100 | 0.218 | 53.8 | 0.385 | > 69.2 |
